The subject of this experiment is yellow mealworm, Tenebrio molitor, L. Nature of the experiment: Insecticidal evaluation test: hindering metamorphosis of insects (Tenebrio molitor pupae, topical application). It is filed as in vivo. The settings on record: applied in acetone to the venter of pupae 1-25 hours old; 28° C., 40% humidity; graded at adult emergence (6-8 days); average of 2 groups of 20 pupae. The method, then:
The degree of activity of a candidate compound to hinder or impede the metamorphosis of insects is measured by treating the penultimate larval stage of a representative insect with the compound and examining it after its last molt toward the adult form for retention of immature features.
Specifically, yellow mealworm, Tenebrio molitor, L., larvae are maintained at 28° C. and 40% humidity on a diet of bran flakes. Prepupae care collected from the culture and kept in separate containers. The pupae collected once daily, are 1-25 hours old at the time of treatment. By means of a syringe, suitable amounts of candidate compounds in […] of acetone are applied to the ventor of Tenebrio molitor, L. pupae. Treated pupae are maintained at 28° C. and 40% humidity until the adults emerged (usually within 6-8 days). Emerged adults are graded as positive, negative, or dead. To be considered a positive response, the presence of typical pupal cuticle, urogomphi, gin trap, and abnormal wings, etc., are required. For each test, 2 groups of 20 pupae were used and the averaged results were reported.
The dose of a candidate compound per pupa that is needed to kill or give a positive response in the above insecticidal evaluation test for 10 of the 20 pupae is determined.
On to `C=C(C)C(Cl)CCC(C)=CCOc1ccc(SC)cc1` (stereo not shown) [Compound 1], for which the “ED50: dose per pupa needed to kill or give a positive response for 10 of the 20 pupae” value is 0.3 μg/pupa.
The figure for `C=C(C)C(Cl)CCC(C)=CCOc1ccc(CC)cc1` (stereo not shown) [Compound 2, 1-(4'-ethyl) phenoxy-3,7-dimethyl-6-chloro-2,7-octadiene] is 0.1 μg/pupa; for `C=C(C)C(Br)CCC(C)=CCOc1ccc(CC)cc1` (stereo not shown) [Compound 3, 1-(4'-ethyl) phenoxy-3,7-dimethyl-6-bromo-2,7-octadiene] it is 0.5 μg/pupa; for `C=C(C)C(Cl)CCC1(C)OC1COc1ccc(CC)cc1` (stereo not shown) [Compound 24, 3,7-dimethyl-6-chloro-1-p-ethylphenoxy-2,3-epoxy-7-octene] it is 0.03 μg/pupa.

The values are drawn from patent publication US3994981A, “Derivatives of certain geranyl phenyl ethers” (Stauffer Chemical Company, priority 1973, dated 1976).
